The test system of data set [1] is Mycobacterium tuberculosis. The data set is described as follows: Antimycobacterial activity against Mycobacterium tuberculosis H37Rv after 45 days. The format is functional.
Data set [2] is described as follows: Cytotoxicity against HEK293T cells assessed as decrease in cell viability after 72 hrs by MTT assay. The format is toxicity, cell-based, HEK-293T. Particulars: human. On the technique in general: Tetrazolium assays rely on reduction of a dye to a coloured formazan, in cell work by metabolically active cells.
The nature of data set [3]: Selectivity index, ratio of IC50 for HEK293T cells to MIC for Mycobacterium tuberculosis H37Rv. In kind it is toxicity, cell-based, HEK-293T. The conditions noted are these: human, read-out: Selectivity Index.

Converted amounts (≈) assume the structure as drawn. Counter-ions that a name gives are not always drawn.

One may read the MIC as the least concentration at which growth counts as inhibited. The term IC50 denotes the point on the concentration scale where inhibition reaches its midpoint. In data set [1], `CC1Oc2ccccc2C=C1/C=N/NC(=O)c1ccccc1` (centres undefined) yielded an MIC of 6.84 µM (≈ 2 µg/mL). Also, the IC50 at 72 h in data set [2] was 23.3 µM.

As to `CC1Oc2ccccc2C=C1/C=N/NC(=O)c1ccncc1` (centres undefined), the MIC in data set [1] is 0.17 µM (≈ 0.0499 µg/mL). The IC50 at 72 h in data set [2] was 76.3 µM. The selectivity ratio in data set [3] amounted to 449.

In data set [1], `CC1Oc2ccccc2C=C1/C=N/NC(=O)c1ccc(O)cc1` (centres undefined) gave an MIC of 0.64 µM (≈ 0.197 µg/mL). Moreover, the IC50 at 72 h in data set [2] worked out at 48.8 µM. Also, the selectivity ratio in data set [3] is 76.2.

As for `O=C(N/N=C/c1c(Cl)c2ccccc2oc1=O)c1ccc(F)cc1`, in data set [1], the MIC was determined as 1.45 µM (≈ 0.5 µg/mL). In addition, in data set [2], the IC50 at 72 h amounted to 26.2 µM.

As for `CC1Oc2ccccc2C=C1/C=N/NC(=O)c1ccc(Cl)cc1` (centres undefined), the MIC in data set [1] is > 6.12 µM.

`O=C(N/N=C/C1=Cc2ccccc2OC1c1ccccc1)c1ccc(F)cc1` (centres undefined): in data set [1], inhibition of growth (MIC) required 1.34 µM (≈ 0.499 µg/mL). Further, the IC50 at 72 h in data set [2] turned out to be 30.9 µM.

With `CC1Oc2ccccc2C=C1/C=N/NC(=O)c1cccs1` (centres undefined), the MIC in data set [1] is > 6.7 µM.

With `O=C(N/N=C/C1=Cc2ccccc2OC1c1ccccc1)c1cccs1` (centres undefined), in data set [1], the MIC was > 5.54 µM.

In the case of `COc1ccc(C(=O)N/N=C/C2=Cc3ccccc3OC2)cc1`, the lowest concentration to inhibit growth in data set [1] (MIC) was 6.48 µM (≈ 2 µg/mL). For the same compound, the IC50 at 72 h in data set [2] came to 36 µM.

In the case of `O=C(N/N=C/c1c(Cl)c2ccccc2oc1=O)c1ccc(O)cc1`, the MIC in data set [1] was found to be 5.83 µM (≈ 2 µg/mL). Also, in data set [2], the IC50 at 72 h was 33.1 µM.

For `O=C(N/N=C/C1=Cc2ccccc2OC1c1ccccc1)c1ccc(Cl)cc1` (centres undefined), the MIC in data set [1] was > 5.14 µM. Besides, the IC50 at 72 h in data set [2] was found to be 13.2 µM.

For the compound `COc1ccc(C(=O)N/N=C/C2=Cc3ccccc3OC2c2ccccc2)cc1` (centres undefined), the MIC in data set [1] came to 0.13 µM (≈ 0.05 µg/mL). The IC50 at 72 h in data set [2] was found to be 90.7 µM. Besides, the selectivity ratio in data set [3] came out at 697.

With `O=C(N/N=C/c1c(Cl)c2ccccc2oc1=O)c1ccccc1`, it took 6.12 µM (≈ 2 µg/mL) to inhibit growth in data set [1] (MIC). Also, in data set [2], the half-inhibitory concentration (IC50) at 72 h was 28.6 µM.

In turn, `COc1ccc(C(=O)N/N=C/C2=Cc3ccccc3OC2C)cc1` (centres undefined) had an MIC in data set [1] of 6.2 µM (≈ 2 µg/mL).

Turning to `O=C(N/N=C/c1c(Cl)c2ccccc2oc1=O)c1ccncc1`, the MIC in data set [1] was found to be 6.1 µM (≈ 2 µg/mL). Further, the IC50 at 72 h in data set [2] came out at 12.6 µM.

On to `O=C(N/N=C/C1=Cc2ccccc2OC1)c1ccco1`, for which the MIC in data set [1] turned out to be 0.74 µM (≈ 0.199 µg/mL). In data set [2], the IC50 at 72 h came to 47.3 µM. Further, the selectivity ratio in data set [3] turned out to be 63.9.

`CC1Oc2ccccc2C=C1/C=N/NC(=O)c1ccco1` (centres undefined) displayed an MIC in data set [1] of 0.18 µM (≈ 0.0508 µg/mL). In addition, the IC50 at 72 h in data set [2] stood at 21.2 µM. Moreover, the selectivity ratio in data set [3] came to 118.

As for `Cc1nnsc1C(=O)N/N=C/C1=Cc2ccccc2OC1c1ccccc1` (centres undefined), the MIC in data set [1] worked out at 0.53 µM (≈ 0.2 µg/mL). Besides, the IC50 at 72 h in data set [2] came out at 30.2 µM. In addition, the selectivity ratio in data set [3] turned out to be 56.9.

`O=C(N/N=C/C1=Cc2ccccc2OC1)c1ccc(Cl)cc1`: it took 6.39 µM (≈ 2 µg/mL) to inhibit growth in data set [1] (MIC).

The compound `O=C(N/N=C/C1=Cc2ccccc2OC1c1ccccc1)c1ccco1` (centres undefined) gave an MIC in data set [1] of 0.15 µM (≈ 0.0517 µg/mL). The IC50 at 72 h in data set [2] was found to be 11.9 µM. The selectivity ratio in data set [3] stood at 79.4.

`Cc1nnsc1C(=O)N/N=C/c1c(Cl)c2ccccc2oc1=O` had an MIC in data set [1] of 0.67 µM (≈ 0.234 µg/mL). Also, the IC50 at 72 h in data set [2] was determined as 30.2 µM. Moreover, in data set [3], the selectivity ratio was found to be 45.

In turn, `O=C(N/N=C/C1=Cc2ccccc2OC1)c1cccs1` had an MIC in data set [1] of 7.03 µM (≈ 2 µg/mL). In data set [2], the IC50 at 72 h worked out at 22.1 µM.

In data set [1], `CC[C@@H](CO)NCCN[C@@H](CC)CO` [ETHAMBUTOL HYDROCHLORIDE] showed an MIC of 7.64 µM.

Turning to `NNC(=O)c1ccncc1` [ISONIAZID], in data set [1], the lowest concentration to inhibit growth (MIC) was 1.45 µM (≈ 0.199 µg/mL).

These data come from ChEMBL document CHEMBL3870347, “Antimycobacterial activity of novel hydrazide-hydrazone derivatives with 2H-chromene and coumarin scaffold” (Bioorg Med Chem Lett, 2017).
